Test results taken from US10774081B2, “Indolo substituted piperidine compound as estrogen receptor down-regulator” (LUOXIN PHARMACEUTICAL (SHANGHAI) CO., LTD., priority 2016, dated 2020).

Legend:
MCF-7 cells = experiment: MCF-7 Cell Proliferation Inhibition Assay; type: cell-based; conditions: Homo sapiens, MCF7, 144 h, 6 days incubation, CellTiter-Glo, read-out: MCF-7 cell proliferation suppression
Protocol: (1) MCF-7 Cell Proliferation Inhibition Assay
Substrate RPMI 1640, fetal calf serum, reagent Promega CellTiter-Glo. MCF-7 cell lines were purchased from the European Cell Culture Collection (ECACC). Envision multi-lable analyzer (PerkinElmer).
MCF-7 cells were seeded in black 384-well plates, each of the well has 600 cells in […] of cell suspension. The cell plates were placed in a carbon dioxide incubator overnight.
The compound to be tested was diluted by 5 times for 10 concentrations with Epmotion, ie., dilution from 0.25 mmol to 1.28 nmol, and replicated. 198 μl Medium was added to the middle plate, and 2 μl of each well of the gradient diluted compound was transferred to the correspondent position on the middle plate, and then 20 μl of each well was transferred to the cell plate after mixing. Then the cell plate was incubated in a carbon dioxide incubator for 6 days.
25 μl Promega CellTiter-Glo reagent was added into each well of the cell plate, the cell plate was then incubated for 10 mins at room temperature to stabilize the luminescence signal. PerkinElmer Envision multi-label analyser was used for readings.
The original data is converted to the inhibition rate using the equation (Max−Ratio)/(Max−Min)*100%, the value of IC50 also can be obtained by the curve fitting with four parameters. (by 205 model in XLFIT5,iDBS)

estrogen receptor = target: T1, estrogen receptor (Homo sapiens, UniProt P03372); experiment: ER Degradation in MCF-7 Cell; type: cell-based; conditions: MCF-7 cells, 20 hours incubation, ER antibody infrared fluorescence; read-out: MCF-7 ER degradation IC50 intracellular
T1 construct: endogenous in cells; host or cells: MCF-7 (ECACC)
T1 sequence (P03372 1-595): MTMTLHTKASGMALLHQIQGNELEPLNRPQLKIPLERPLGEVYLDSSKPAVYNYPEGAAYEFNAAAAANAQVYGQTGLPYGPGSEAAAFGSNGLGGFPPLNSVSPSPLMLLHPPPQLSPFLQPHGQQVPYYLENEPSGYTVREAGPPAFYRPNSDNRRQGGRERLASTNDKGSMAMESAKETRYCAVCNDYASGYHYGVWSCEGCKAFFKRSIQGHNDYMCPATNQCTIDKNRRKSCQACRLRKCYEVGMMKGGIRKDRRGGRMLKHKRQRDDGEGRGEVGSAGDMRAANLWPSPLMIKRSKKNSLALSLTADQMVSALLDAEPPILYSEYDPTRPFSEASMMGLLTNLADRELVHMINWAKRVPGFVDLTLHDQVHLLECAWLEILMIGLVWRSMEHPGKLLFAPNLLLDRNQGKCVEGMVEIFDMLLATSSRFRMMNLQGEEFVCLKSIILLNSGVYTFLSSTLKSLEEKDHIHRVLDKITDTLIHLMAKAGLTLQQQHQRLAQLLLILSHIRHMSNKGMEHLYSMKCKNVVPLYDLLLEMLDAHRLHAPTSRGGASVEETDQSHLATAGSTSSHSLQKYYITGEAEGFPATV
Protocol: Substrate RPMI 1640, fetal calf serum, PBS, 16% paraformaldehyde, Triton, confining liquid, estrogen receptor antibody, near0infrared goat anti-rabbit secondary antibody, DRAQ5 dye. The MCF-7 cell lines were purchased from the European Cell Culture Collection (ECACC). Odyssey infrared fluorescence scanning imaging system.
The MCF-7 cell was seeded in the black 384-well plate, each of the well has 3200 cells in 30 ml cell suspension. The cell plate were incubated in a carbon dioxide incubator for 4 days.
198 μl Medium was added into the middle plate and 2 μl each well of the gradient diluted compound was transferred to the correspond position on the middle plate, then the compound was transferred 20 μl per well after mixing to the cell plate. The cell plate was then incubated in a carbon dioxide incubator for 20 hours.
50 μl 8% Paraformaldehyde was added into each well of the cell plate, after incubation at room temperature for 30 min, the plate was washed by PBS twice, pat dried and 50 ul PBS containing 0.1% Triton was added, the plate was incubated at room temperature for 15 mins, then washed with PBS for 5 times, pat dried and 50 ul confining liquid was added and incubated at room temperature for 1 hour, pat dried and 50 ul confining liquid containing 0.1% estrogen receptor antibody was added and then left at 4° C. overnight. […]

[1] = Tissue distribution evaluation of the drug (plasma and brain); type: in vivo; conditions: mouse, mice, dosage 10 mpk, 21th day after administration, tissue collected near Tmax, read-out: Ratio of drug concentration Brain tissue/plasma
Protocol: Experiment 2: Tissue Distribution Evaluation of the Drug
On the 21th day after administration, select randomly three mice from the drug-administrated group, and collect their plasma samples at different timing, the mice were euthanized near Tmax, and the tumor, brain and breast samples were collected.
The procedure of collecting the plasma and tissue samples are as follows:
Plasma: Blood (60 μl) was collected using a 1.5 ml EDTA-K2 anticoagulation tube, the plasma was obtained after immediately centrifugation at 7000 rpm, at 4° C. for 10 mins, then the plasma simple was stored at −80° C. for drug concentration determination.
Tissue: Brain was collected using a 5 ml cryotube and immediately quick froze in liquid nitrogen. After sampling, tissues were stored at −80° C. for drug concentration determination used for comparing the distribution.

[2] = in vivo; cited from earlier work
breast cancer = conditions: intramuscularly administrated; cited from earlier work

| IC50 (MCF-7 cells) | DC50 (estrogen receptor) | Kp [1] | SMILES | oral bioavailability [2] | breast cancer patients showing clinical response (breast cancer) |
| --- | --- | --- | --- | --- | --- |
| 1.17 nM | 1.13 nM | 13.1 | CC1Cc2c([nH]c3ccccc23)C(c2c(F)cc(OCCN3CC(CC#N)C3)cc2F)N1CC(F)(F)F (stereo not shown) [(I)] |  |  |
|  |  | 5.8 | C[C@@H]1Cc2c([nH]c3ccccc23)[C@@H](c2c(F)cc(OCCN3CC(CF)C3)cc2F)N1CC(C)(C)F [(II)] |  |  |
| 1.77 nM |  |  | C[C@]12CC[C@@H]3c4ccc(O)cc4C[C@@H](CCCCCCCCC[S+]([O-])CCCC(F)(F)C(F)(F)F)[C@H]3[C@@H]1CC[C@@H]2O (stereo partly shown) [Fulvestrant] | zero | 50% |
